Results published in patent US12156909B2, “Reverse peptide vaccine” (Emergex Vaccines Holding Limited, priority 2018, dated 2024).

Tests used:
HLA-A2 = experiment: HLA binding of NEG8 peptides shared with other flu proteins (Table 5), A2; conditions: score printed after 'A2:'; no method or unit given
Source text: (§1) was used to search datasets of T cell epitopes derived from influenza virus infected cells. The NEG8 peptides described in Examples 1 and 2 were also identified using this search. The purpose of performing the search was to establish whether any NEG8 peptides or sequences within the polypeptide encoded by the NEG8 ORF are shared with any other influenza A virus proteins. Table 5 sets out T cell epitopes derived from influenza A virus proteins other than NEG8 that are also comprised in one or more of the NEG8 peptides identified in Examples 1 and 2 or the polypeptide encoded by the NEG8 ORF. From this, numerous NEG8 peptides considered to bind to MHC in cells infected with influenza A virus can be identified based on confidence level, XCorr, and performance of fragment mass spectra.

HLA-A24 = experiment: HLA binding of NEG8 peptides shared with other flu proteins (Table 5), A24; conditions: no method or unit given
Source text: as §1

HLA-B7 = experiment: HLA binding of NEG8 peptides shared with other flu proteins (Table 5), B7; conditions: score printed after 'B7:'; no method or unit given
Source text: as §1

MHC class I = type: cell-based

| Sequence | HLA binding A2 (HLA-A2) | HLA binding A24 (HLA-A24) | HLA binding B7 (HLA-B7) | found in influenza A virus-infected cells (MHC class I) |
| --- | --- | --- | --- | --- |
| AFNMMFLSM | A2:10 | A24:7 |  |  |
| AFSVMFLSM |  | A24:7 |  |  |
| AILSLQTFD (Influenza A virus) |  | A24:2 |  |  |
| ALSSIRVSS (Influenza A virus) | A2:16 |  | B7:7 |  |
| FLICVSPLQL (Influenza A virus) | A2:24 | A24:13 |  |  |
| IAPSSVKALS (Influenza A virus) |  |  |  | truly found in influenza A virus-infected cells |
| KITLKFAFNMM (Influenza A virus) |  |  |  | truly found in influenza A virus-infected cells |
| LFLICVSLL (Influenza A virus) | A2:18 | A24:21 |  |  |
| LMQRGPSTF (Influenza A virus) |  |  |  | truly found in influenza A virus-infected cells |
| SPLQLAILSL (Influenza A virus) |  |  | B7:22 |  |
